Measurements as given in patent publication US20050182140A1, “Antimicrobial compositions” (Microban Products Company, priority 2003, published 2005).

Columns and labels:
Format in all cases: cell-based
K. pneumoniae [1] = experiment: Kirby Bauer Test Method, treated cotton samples (Example 3); settings: agent at 800 ppm with R10800 at 0.67% and USV at 0.33%, cotton laundered 50 times
Experimental: (§1) The efficacy of Emulsion A in cotton sample material was tested, alone and in combination with other agents. The Kirby Bauer Test Method, which is a known bacterial test method, was followed. The sample size of the cotton was 38.1 mm×38.1 mm (1.5 inches×1.5 inches) square. The growth medium was Mueller-Hinton Agar. Prior to treatment, the cotton was steam sterilized at 121° C. The samples were pre-wet with sterile deionized water. The samples were incubated at 37° C.±2° C. for 18 to 24 hours. The samples were each laundered 50 times unless indicated to the contrary. NZ means that no zone of inhibition surrounded the sample. NI means that there was no inhibition of growth under the sample (if observable). The zone of inhibition was reported in millimeters.
(§2) Note that the percentages of R10800 and USV represent target loading levels on the cotton samples.

S. aureus 6538 [2] = experiment: as above; settings: agent at 800 ppm with R10800 at 0.67% and USV at 0.33%, cotton laundered 50 times
Experimental: as §1, §2

K. pneumoniae [3] = experiment: AATCC Test Method 147, treated cotton samples (Examples 2 and 4); settings: Example 2; agent at 900 ppm; cotton laundered 50 times
Experimental: (§3) The efficacy of Emulsion A in cotton sample material was tested, alone and in combination with other agents. The AATCC Test Method 147, which is a known bacterial test method for textiles, was followed. The sample size of the cotton was a 25 mm×75 mm rectangle. The growth medium was Nutrient Agar. Prior to treatment, the cotton was steam sterilized at 121° C. The samples were incubated at 37° C.±2° C. for 18 to 24 hours. The samples were each laundered 50 times prior to doing the micro testing unless indicated to the contrary. NZ means that no zone of inhibition surrounded the sample. NI means that there was no inhibition of growth under the sample (if observable). The zone of inhibition was reported in millimeters.
(§4) The efficacy of Emulsion A in cotton sample material was tested, alone and in combination with other agents. The AATCC Test Method 147, which is a known test method, was followed. The sample size of the cotton was 25 mm×75 mm rectangle. The growth medium was Nutrient Agar. Prior to treatment, the cotton was steam sterilized at 121° C. The samples were incubated at 37° C.±2° C. for 18 to 24 hours. The samples were each laundered 50 times unless indicated to the contrary. NZ means that no zone of inhibition surrounded the sample. NI means there was no inhibition of growth under the sample (if observable). The zone of inhibition was reported in millimeters.

S. aureus 6538 [4] = experiment: as above; settings: Example 2; agent at 900 ppm; cotton laundered 50 times
Experimental: as §3, §4

Oc1ccccc1-c1ccccc1 [Ortho-phenyl phenol]
Size of Zone (K. pneumoniae [1]): 0 mm | Zone Results (K. pneumoniae [1]): NZ/NI | Size of Zone (S. aureus 6538 [2]): 0 mm | Zone Results (S. aureus 6538 [2]): NZ/NI

O=C(Nc1ccc(Cl)cc1)Nc1ccc(Cl)c(Cl)c1 [Triclocarban]
Size of Zone (K. pneumoniae [1]): 0 mm | Zone Results (K. pneumoniae [1]): NZ/NI | Size of Zone (S. aureus 6538 [2]): 0 mm | Zone Results (S. aureus 6538 [2]): NZ/NI

Zinc pyrithione [Zinc pyrithione (FPS dispersion)]
Size of Zone (K. pneumoniae [1]): 0 mm | Zone Results (K. pneumoniae [1]): NZ/NI | Size of Zone (S. aureus 6538 [2]): 0 mm | Zone Results (S. aureus 6538 [2]): NZ/I | Size of Zone (K. pneumoniae [3]): 0 mm | Zone Results (K. pneumoniae [3]): NZ/NI | Size of Zone (S. aureus 6538 [4]): 2 mm
